This is an account of results in publication PMC8921065, “Combination of terbium-161 with somatostatin receptor antagonists—a potential paradigm shift for the treatment of neuroendocrine neoplasms” (European Journal of Nuclear Medicine and Molecular Imaging, 2021).

Broadly, the tissue uptake is the percentage of the injected dose found per gram of tissue.

The subject of data set [1] is AR42J tumor-bearing mice. To be noted: 2 h p.i., 1.0 nmol/mouse, ref Borgna et al., 2021 [11], cited from earlier work.
The next data set in a line: in vivo. Particulars: mouse, iv, total radioactivity.
Data set [2] deals with AR42J tumor-bearing mice. Nature of the data set: Therapy study, therapeutic efficacy. To be noted: for tumor growth delay: day 0 and day 7; for Time frame of euthanasia: end of study day 49.
Experimental: The therapy study was initiated with mice randomly assigned to five groups (n = 6) when the AR42J tumors reached an average volume of 99 ± 16 mm^3. […] The endpoint criteria were defined according to a scoring system which required euthanasia of mice with a score ≥ 3 (Supplementary Material).
For the subsequent phase, in which the tumors started to regrow, the doubling time of the tumor volume was calculated based on the fitted exponential tumor growth curve. The average ± SD of tumor growth delay and of the doubling time of the tumor volume in single mice, respectively, were compared among groups with a one-way ANOVA with Tukey’s multiple comparisons post-test. The survival times of mice were presented by Kaplan–Meier curves and analyzed using a log-rank test (Mantel-Cox).
Definition of tumor volume (V) and relative tumor volume (RTV): The tumor dimension was determined by measuring the longest tumor axis (L) and its perpendicular axis (W) with a digital caliper. The tumor volume (TV) was calculated according to the equation [V = 0.5 × (L × W^2)]. The relative tumor volume (RTV) was defined as [TVx/TV0], where TVx is the tumor volume in mm^3 at a given Day x and TV0 the tumor volume in mm^3 at Day 0.
Scoring system: Endpoint criteria were defined using a scoring system which required euthanasia of mice with a score ≥3. Every second day, the following criteria were assessed in the mice, assigning a score from 0–3 for each criterion: (i) appearance (general status, skin color, etc.), (ii) behavior (vitality, sociality, crouching etc.), (iii) body weight (stable, loss >5 ≤10%, loss >10 <15%, loss ≥ 15% compared to initial body weight), (iv) tumor size (<800 mm^3, ≥800 and <900 mm^3, ≥900 and <1000 mm^3, ≥1000 mm^3), (v) tumor ulceration. A score ≥3 was for example due to: (i) appearance of wrinkled, translucent skin, (ii) mouse in crouching position and/or apathetic, (iii) a body weight loss of ≥15% of initial body weight, (iv) a tumor volume of ≥1000 mm^3, (iii/iv) a combination of a tumor size of ≥800 mm^3 and body weight loss of ≥10% and/or (v) ulceration of the tumor.
Data set [3] is described as follows: Early side effects: blood plasma chemistry. In kind it is in vivo, mice. To be noted: endpoint of the therapy.
Data set [4] can be described thus: Early side effects: relative body weight, organ masses and mass ratios. It is filed as in vivo, mice. Particulars: at euthanasia. An excerpt:
At the same time, relevant organs and tissues were collected, and the masses were put into relation to the brain mass of the respective mouse in order to allow the comparison of organ-to-brain and organ-to-body weight ratios among the single treatment groups (Supplementary Material).
Definition of relative body weight (RBW): The RBW was defined as [BWx/ BW0], where BWx is the body weight in gram at a given Day x and BW0 the body weight in gram at Day 0.

In the next data set the test system is metastatic NENs. Particulars: human, in vivo; cited from earlier work.

Each structure is given as a SMILES string. Where “and” joins values, the source holds several entries; their conditions need not be identical. Equal entries are not always repeated. Where two headings read alike, the source gives them in different places. Where a SMILES comes first, the peptide text is derived from it. Bridges are numbered along the chain shown (N, C = ends). [ ]: non-standard residue; d: D form. The star is where a group is joined. DOTA = O=C(O)CN1CCN(CC(=O)O)CCN(CC(=O)*)CCN(CC(=O)O)CC1; dPhe(4-NHCONH2) = NC(=O)Nc1ccc(C[C@@H](N)C(=O)O)cc1; Phe(4-Cl) = N[C@@H](Cc1ccc(Cl)cc1)C(=O)O

As for `C[C@@H](O)[C@@H]1NC(=O)[C@H](CCCCN)NC(=O)[C@@H](Cc2ccc(NC(N)=O)cc2)NC(=O)[C@H](Cc2ccc(O)cc2)NC(=O)[C@H](NC(=O)[C@H](Cc2ccc(Cl)cc2)NC(=O)CN2CCN(CC(=O)O)CCN(CC(=O)O)CCN(CC(=O)O)CC2)CSSC[C@@H](C(=O)N[C@H](Cc2ccc(O)cc2)C(N)=O)NC1=O` [DOTA-LM3], the AR42J tumor uptake in the data set on AR42J tumor-bearing mice [1] (listed as [^161Tb]Tb/[^177Lu]Lu-DOTA-LM3) was ~ 18 % IA/g.

`C[C@@H](O)[C@@H]1NC(=O)[C@H](CCCCN)NC(=O)[C@@H](Cc2c[nH]c3ccccc23)NC(=O)[C@H](Cc2ccc(O)cc2)NC(=O)[C@@H](NC(=O)[C@@H](Cc2ccccc2)NC(=O)CN2CCN(CC(=O)O)CCN(CC(=O)O)CCN(CC(=O)O)CC2)CSSC[C@@H](C(=O)N[C@H](CO)[C@@H](C)O)NC1=O` [DOTATOC, DOTA-[Tyr^3]-octreotide]: the AR42J tumor uptake with AR42J tumor-bearing mice [1] (listed as [^161Tb]Tb-/[^177Lu]Lu-DOTATOC) is reported as ~ 8 % IA/g. Also, the tissue uptake at 2 h in the data set “in vivo” (AR42J tumor, 0.04 nmol/mouse) is approximately 17 %ID/g; in the data set “in vivo” (AR42J tumor, 0.2 nmol/mouse) it was approximately 15 %ID/g; in “in vivo” (liver), approximately 0.2 %ID/g.

Regarding `C[C@@H](O)[C@@H]1NC(=O)[C@H](CCCCN)NC(=O)[C@@H](Cc2c[nH]c3ccccc23)NC(=O)[C@H](Cc2ccc(O)cc2)NC(=O)[C@@H](NC(=O)[C@@H](Cc2ccccc2)NC(=O)CN2CCN(CC(=O)O)CCN(CC(=O)O)CCN(CC(=O)O)CC2)CSSC[C@@H](C(=O)N[C@H](CO)[C@@H](C)O)NC1=O` [[^161Tb]Tb-DOTATOC] [metal not drawn], in the data set with AR42J tumor-bearing mice [2] (2 × 10 MBq, 0.2 nmol), the tumor growth delay is reported as 9.0 ± 5.5 days and the “Time frame of euthanasia” value is 20 to 26 days. The compound further had a Median survival in the data set on AR42J tumor-bearing mice [2] (mouse, in vivo) of 21 days. Besides, in the data set with AR42J tumor-bearing mice [1], the AR42J tumor uptake was 8.2 ± 0.2 % IA/g, the Adrenals uptake was 0.25 ± 0.06 % IA/g, the Blood uptake is listed as not above 0.10 % IA/g and the Femur uptake is not above 0.10 % IA/g. Moreover, in the data set with AR42J tumor-bearing mice [1], the Heart uptake is not above 0.10 % IA/g, the Intestines uptake is on record as 0.21 ± 0.13 % IA/g, the Kidneys uptake is recorded as 9.9 ± 1.3 % IA/g and the Liver uptake is 0.17 ± 0.01 % IA/g. Also, in the data set on AR42J tumor-bearing mice [1], the Lung uptake was 0.27 ± 0.03 % IA/g, the Muscle uptake is not above 0.10 % IA/g, the Pancreas uptake was 0.71 ± 0.07 % IA/g and the Spleen uptake is on record as 0.11 ± 0.02 % IA/g. The Stomach uptake with AR42J tumor-bearing mice [1] is on record as 0.74 ± 0.38 % IA/g. In addition, in data set [3], the ALB was 23 ± 2 g/L, the ALP came to 76 ± 21 U/L, the BUN was determined as 5.8 ± 1.0 mmol/L and the CRE was <18 (n=6) µmol/L. Also, the TBIL in data set [3] is < 3 µmol/L and 4 ± 1 µmol/L. Further, in data set [4], the “Organ mass Brain” value was 440 ± 23 mg, the “Organ mass Kidneys” value was determined as 352 ± 27 mg, the “Organ mass Liver” value is on record as 1195 ± 57 mg and the “Organ mass Spleen” value is 86 ± 19 mg.

Consider `C[C@@H](O)[C@@H]1NC(=O)[C@H](CCCCN)NC(=O)[C@@H](Cc2ccc(NC(N)=O)cc2)NC(=O)[C@H](Cc2ccc(O)cc2)NC(=O)[C@H](NC(=O)[C@H](Cc2ccc(Cl)cc2)NC(=O)CN2CCN(CC(=O)O)CCN(CC(=O)O)CCN(CC(=O)O)CC2)CSSC[C@@H](C(=O)N[C@H](Cc2ccc(O)cc2)C(N)=O)NC1=O` [[^177Lu]Lu-DOTA-LM3] [metal not drawn] ({DOTA}-[Phe(4-Cl)][dC]Y[dPhe(4-NHCONH2)]KTC[dY]-NH2; disulfide 2-7 (inferred); C-terminus assumed), for which, in the data set with metastatic NENs, the tolerability in patients entry is recorded as “well tolerated” and the “tumor doses compared to [177Lu]Lu-DOTATOC” value is “higher tumor doses”. In the data set on AR42J tumor-bearing mice [2] (2 × 10 MBq, 0.2 nmol), the tumor growth delay came out at 35 ± 7 days. In addition, the “mice with exponential tumor regrowth” value in the data set with AR42J tumor-bearing mice [2] (after the growth delay) is reported as 5 out of 6. Moreover, in the data set on AR42J tumor-bearing mice [2] (mouse, in vivo), the Median survival came out at 48.5 days and the “mice surviving until the end of the study” value is reported as “three out of six mice”. Also, in the data set with AR42J tumor-bearing mice [2] (regrowth phase, 2 × 10 MBq, 0.2 nmol), the “doubling time of the tumor volume” value turned out to be 3.8 ± 1.1 days. In addition, in data set [3], the ALB is recorded as 23 ± 1 g/L; the ALP is given as 66 ± 5 U/L; the BUN is 8.2 ± 1.9 mmol/L and 8.2 ± 1.8 mmol/L; the CRE is < 18 µmol/L and 19 µmol/L. Besides, the TBIL in data set [3] was < 3 µmol/L and 4 ± 1 µmol/L. In data set [4], the “Organ mass Brain” value came to 471 ± 30 mg, the “Organ mass Kidneys” value is 336 ± 13 mg, the “Organ mass Liver” value was 1254 ± 106 mg and the “Organ mass Spleen” value was determined as 92 ± 17 mg.

As for `C[C@@H](O)[C@@H]1NC(=O)[C@H](CCCCN)NC(=O)[C@@H](Cc2c[nH]c3ccccc23)NC(=O)[C@H](Cc2ccc(O)cc2)NC(=O)[C@@H](NC(=O)[C@@H](Cc2ccccc2)NC(=O)CN2CCN(CC(=O)O)CCN(CC(=O)O)CCN(CC(=O)O)CC2)CSSC[C@@H](C(=O)N[C@H](CO)[C@@H](C)O)NC1=O` [[^177Lu]Lu-DOTATOC] [metal not drawn], in the data set with AR42J tumor-bearing mice [2] (2 × 10 MBq, 0.2 nmol), the tumor growth delay was 6.0 ± 4.4 days and 6 ± 4 days; the “Time frame of euthanasia” value fell in the range of 12 to 22 days. In addition, the Median survival in the data set with AR42J tumor-bearing mice [2] (mouse, in vivo) worked out at 19.5 days. Moreover, in the data set with AR42J tumor-bearing mice [1], the AR42J tumor uptake was 8.9 ± 1.5 % IA/g, the Adrenals uptake is recorded as 0.28 ± 0.08 % IA/g, the Blood uptake is reported as not above 0.10 % IA/g and the Femur uptake is reported as not above 0.10 % IA/g. In the data set on AR42J tumor-bearing mice [1], the Heart uptake was not above 0.10 % IA/g, the Intestines uptake was 0.20 ± 0.05 % IA/g, the Kidneys uptake is listed as 11 ± 1 % IA/g and the Liver uptake was 0.26 ± 0.07 % IA/g. Further, in the data set on AR42J tumor-bearing mice [1], the Lung uptake is reported as 0.37 ± 0.06 % IA/g, the Muscle uptake is not above 0.10 % IA/g, the Pancreas uptake was 0.80 ± 0.13 % IA/g and the Spleen uptake is 0.15 ± 0.03 % IA/g. In the data set on AR42J tumor-bearing mice [1], the Stomach uptake was 0.65 ± 0.11 % IA/g. Also, in data set [3], the ALB was 24 ± 5 g/L, the ALP is reported as 77 ± 8 U/L, the BUN is 6.3 ± 0.9 mmol/L and the CRE is <18 (n=5) µmol/L. Also, the TBIL in data set [3] is < 3 µmol/L and 4 ± 1 µmol/L. Moreover, in data set [4], the “Organ mass Brain” value is listed as 453 ± 31 mg, the “Organ mass Kidneys” value turned out to be 342 ± 23 mg, the “Organ mass Liver” value stood at 1121 ± 123 mg and the “Organ mass Spleen” value amounted to 90 ± 17 mg.
